In ChEMBL document CHEMBL4177639, “Acacetin inhibits neuronal cell death induced by 6-hydroxydopamine in cellular Parkinson's disease model” (Bioorg Med Chem Lett, 2017):
Activity calls are given as the source filed them. No cut-off for these calls is given here.

What was measured:
[1] = biological target: c-Jun N-terminal kinase, JNK (Homo sapiens) (UniProt P45983+P53779+P45984); assay: Inhibition of 6-OHDA induced JNK phosphorylation in human SH-SY5Y cells at 2.5 to 10 uM pretreated for 1 hr followed by 6-OHDA addition after 1 hr by Western blot analysis; type: cell-based
SH-SY5Y [2] = assay: Neuroprotective activity against 6-OHDA induced apoptosis in human SH-SY5Y cells assessed as reduction in cleaved PARP level at 2.5 to 10 uM pretreated for 1 hr followed by 6-OHDA addition after 6 to 24 hrs by Western blot analysis; type: functional, cell-based
SH-SY5Y [3] = assay: Neuroprotective activity against 6-OHDA induced toxicity in human SH-SY5Y cells assessed as reduction in nuclear fragmentation at 2.5 to 10 uM pretreated for 1 hr followed by 6-OHDA addition after 24 hrs by Hoechst 33258/propidium iodide staining based fluorescence microscopic analysis; type: functional, cell-based
SH-SY5Y [4] = assay: Neuroprotective activity against 6-OHDA induced toxicity in human SH-SY5Y cells assessed as reduction in nuclear necrosis at 2.5 to 10 uM pretreated for 1 hr followed by 6-OHDA addition after 24 hrs by Hoechst 33258/propidium iodide staining based fluorescence microscopic analysis; type: functional, cell-based
SH-SY5Y [5] = assay: Cytotoxicity against human SH-SY5Y cells assessed as reduction in LDH release at 0.5 to 10 uM after 24 hrs by spectrophotometric method; type: cell-based
SH-SY5Y [6] = assay: Neuroprotective activity against 6-OHDA induced apoptosis in human SH-SY5Y cells assessed as reduction in cleaved caspase-3 level at 2.5 to 10 uM pretreated for 1 hr followed by 6-OHDA addition after 6 to 24 hrs by Western blot analysis; type: functional, cell-based
[7] = biological target: Glycogen synthase kinase-3 beta (Homo sapiens) (UniProt P49841); assay: Inhibition of 6-OHDA induced GSK3beta phosphorylation in human SH-SY5Y cells at 2.5 to 10 uM pretreated for 1 hr followed by 6-OHDA addition after 1 hr by Western blot analysis; type: cell-based
SH-SY5Y [8] = assay: Neuroprotective activity against 6-OHDA induced apoptosis in human SH-SY5Y cells assessed as reduction in cytochrome-c level pretreated for 1 hr followed by 6-OHDA addition after 6 to 24 hrs by Western blot analysis; type: functional, cell-based
SH-SY5Y [9] = assay: Neuroprotective activity against 6-OHDA induced apoptosis in human SH-SY5Y cells assessed as reduction in cleaved caspase-9 level at 2.5 to 10 uM pretreated for 1 hr followed by 6-OHDA addition after 6 to 24 hrs by Western blot analysis; type: functional, cell-based
SH-SY5Y [10] = assay: Neuroprotective activity against 6-OHDA induced toxicity in human SH-SY5Y cells assessed as reduction in nuclear condensation at 2.5 to 10 uM pretreated for 1 hr followed by 6-OHDA addition after 24 hrs by Hoechst 33258/propidium iodide staining based fluorescence microscopic analysis; type: functional, cell-based
SH-SY5Y [11] = assay: Neuroprotective activity against 6-OHDA induced toxicity in human SH-SY5Y cells assessed as reduction in cell viability pretreated for 30 mins followed by 6-OHDA addition after 24 hrs by MTT assay; type: functional, cell-based
[12] = biological target: RAC-alpha serine/threonine-protein kinase (Homo sapiens) (UniProt P31749); assay: Inhibition of 6-OHDA induced AKT phosphorylation in human SH-SY5Y cells at 2.5 to 10 uM pretreated for 1 hr followed by 6-OHDA addition after 1 hr by Western blot analysis; type: cell-based
[13] = biological target: Mitogen-activated protein kinase; ERK1/ERK2 (Homo sapiens) (UniProt P27361+P28482); assay: Inhibition of 6-OHDA induced ERK1/2 phosphorylation in human SH-SY5Y cells at 2.5 to 10 uM pretreated for 1 hr followed by 6-OHDA addition after 1 hr by Western blot analysis; type: cell-based
SH-SY5Y [14] = assay: Neuroprotective activity against 6-OHDA induced toxicity in human SH-SY5Y cells assessed as reduction in cell shrinkage at 2.5 to 10 uM pretreated for 1 hr followed by 6-OHDA addition after 24 hrs by Hoechst 33258/propidium iodide staining based fluorescence microscopic analysis; type: functional
SH-SY5Y [15] = assay: Neuroprotective activity against 6-OHDA induced apoptosis in human SH-SY5Y cells assessed as reduction in Bax expression pretreated for 1 hr followed by 6-OHDA addition after 6 to 24 hrs by Western blot analysis; type: functional, cell-based
SH-SY5Y [16] = assay: Cytotoxicity against human SH-SY5Y cells assessed as effect on cell viability at 0.5 to 10 uM after 24 hrs by MTT assay; type: cell-based
SH-SY5Y [17] = assay: Neuroprotective activity against 6-OHDA induced apoptosis in human SH-SY5Y cells assessed as increase in Bcl-2 expression pretreated for 1 hr followed by 6-OHDA addition after 6 to 24 hrs by Western blot analysis; type: functional, cell-based
[18] = biological target: MAP kinase p38 (Homo sapiens) (UniProt O15264+Q15759+Q16539+P53778); settings: SH-SY5Y, 2.5 to 10 uM
Description: Inhibition of 6-OHDA induced p38 phosphorylation in human SH-SY5Y cells at 2.5 to 10 uM pretreated for 1 hr followed by 6-OHDA addition after 1 hr by Western blot analysis

SH-SY5Y [19] = assay: Neuroprotective activity against 6-OHDA induced toxicity in human SH-SY5Y cells assessed as reduction in intracellular ROS accumulation at 1 to 10 uM pretreated for 1 hr followed by 6-OHDA addition after 1 to 6 hrs by DCFH-DA dye based fluorescence spectrophotometric method; type: functional, cell-based
SH-SY5Y [20] = assay: Neuroprotective activity against 6-OHDA induced toxicity in human SH-SY5Y cells assessed as reduction in LDH release pretreated for 30 mins followed by 6-OHDA addition after 24 hrs by spectrophotometric method; type: functional, cell-based
SH-SY5Y [21] = assay: Neuroprotective activity against 6-OHDA induced toxicity in human SH-SY5Y cells assessed as reduction in mitochondrial membrane potential loss at 1 to 10 uM pretreated for 1 hr followed by 6-OHDA addition after 1 to 6 hrs by rhodamine123 dye based fluorescence microscopic analysis; type: functional, cell-based

Chain of RAC-alpha serine/threonine-protein kinase (Homo sapiens) (P31749 whole entry): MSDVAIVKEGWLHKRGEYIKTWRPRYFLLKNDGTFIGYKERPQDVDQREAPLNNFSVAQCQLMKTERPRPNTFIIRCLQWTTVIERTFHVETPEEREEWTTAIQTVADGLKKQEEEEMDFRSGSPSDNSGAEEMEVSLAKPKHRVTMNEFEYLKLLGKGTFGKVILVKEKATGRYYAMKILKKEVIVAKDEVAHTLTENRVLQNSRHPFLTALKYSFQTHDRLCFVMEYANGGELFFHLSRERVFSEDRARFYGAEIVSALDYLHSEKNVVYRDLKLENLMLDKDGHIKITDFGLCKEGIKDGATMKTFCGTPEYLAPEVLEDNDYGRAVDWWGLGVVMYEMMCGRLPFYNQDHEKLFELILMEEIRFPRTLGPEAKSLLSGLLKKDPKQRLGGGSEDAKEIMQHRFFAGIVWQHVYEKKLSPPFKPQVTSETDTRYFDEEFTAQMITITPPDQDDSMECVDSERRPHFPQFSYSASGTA
Chain of Glycogen synthase kinase-3 beta (Homo sapiens) (P49841 whole entry, looked up): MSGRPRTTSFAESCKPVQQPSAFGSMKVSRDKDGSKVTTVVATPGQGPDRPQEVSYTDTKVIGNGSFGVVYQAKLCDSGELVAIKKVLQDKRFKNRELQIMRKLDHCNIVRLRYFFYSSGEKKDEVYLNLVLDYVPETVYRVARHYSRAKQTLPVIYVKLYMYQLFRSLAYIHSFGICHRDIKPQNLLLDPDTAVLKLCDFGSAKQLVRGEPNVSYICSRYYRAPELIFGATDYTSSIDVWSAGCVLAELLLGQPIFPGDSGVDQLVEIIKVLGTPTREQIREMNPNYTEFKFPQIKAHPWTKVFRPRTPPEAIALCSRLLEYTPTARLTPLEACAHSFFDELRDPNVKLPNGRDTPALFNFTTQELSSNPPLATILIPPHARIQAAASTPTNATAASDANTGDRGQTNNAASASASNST
Chain of Mitogen-activated protein kinase; ERK1/ERK2 (Homo sapiens) (P27361 whole entry, looked up): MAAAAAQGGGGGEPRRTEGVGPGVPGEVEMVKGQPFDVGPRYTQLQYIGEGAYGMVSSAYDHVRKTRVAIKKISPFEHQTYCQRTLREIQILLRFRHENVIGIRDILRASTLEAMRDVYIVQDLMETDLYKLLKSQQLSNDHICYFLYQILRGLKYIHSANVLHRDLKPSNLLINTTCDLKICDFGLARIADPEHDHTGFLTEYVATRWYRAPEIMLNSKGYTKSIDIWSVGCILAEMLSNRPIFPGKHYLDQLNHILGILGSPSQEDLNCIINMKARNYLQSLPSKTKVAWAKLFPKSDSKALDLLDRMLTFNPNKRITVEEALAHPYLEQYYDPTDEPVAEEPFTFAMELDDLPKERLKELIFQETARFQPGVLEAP
Chain of Mitogen-activated protein kinase; ERK1/ERK2 (Homo sapiens) (P28482 whole entry, looked up): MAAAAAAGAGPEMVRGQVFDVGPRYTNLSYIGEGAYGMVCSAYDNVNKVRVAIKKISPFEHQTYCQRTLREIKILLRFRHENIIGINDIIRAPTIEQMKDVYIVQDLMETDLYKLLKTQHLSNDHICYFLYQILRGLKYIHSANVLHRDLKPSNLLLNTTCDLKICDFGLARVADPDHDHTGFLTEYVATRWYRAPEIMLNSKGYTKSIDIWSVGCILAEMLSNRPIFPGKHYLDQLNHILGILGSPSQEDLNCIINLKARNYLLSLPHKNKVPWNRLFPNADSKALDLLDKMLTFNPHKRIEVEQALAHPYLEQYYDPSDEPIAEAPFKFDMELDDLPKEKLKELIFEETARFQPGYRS

In the case of `COc1ccc(-c2cc(=O)c3c(O)cc(O)cc3o2)cc1` [ACACETIN], the inhibition [1] was “Active”, the Activity (SH-SY5Y [2]) was “Active” and the Activity (SH-SY5Y [3]) was “Active”. For the same molecule, the Activity (SH-SY5Y [4]) was “Active”, the Activity (SH-SY5Y [5]) was “Non-Toxic” and the Activity (SH-SY5Y [6]) was “Active”. For the same molecule, the inhibition [7] was “Active”, the Activity (SH-SY5Y [8]) was “Dose-dependent effect” and the Activity (SH-SY5Y [9]) was “Active”. For the same molecule, the Activity (SH-SY5Y [10]) was “Active”, the Activity (SH-SY5Y [11]) was “Dose-dependent effect” and the inhibition [12] was “Active”. For the same molecule, the inhibition [13] was “inactive”, the Activity (SH-SY5Y [14]) was “Active” and the Activity (SH-SY5Y [15]) was “Dose-dependent effect”. The Activity (SH-SY5Y [16]) was “Non-Toxic”, the Activity (SH-SY5Y [17]) was “Dose-dependent effect” and the inhibition [18] was “Active”. For the same molecule, the Activity (SH-SY5Y [19]) was “Active”, the Activity (SH-SY5Y [20]) was “Dose-dependent effect” and the Activity (SH-SY5Y [21]) was “Active”.
